Results on five compounds are retold here after patent publication US7507760B2, “N-type calcium channel blockers” (Neuromed Pharmaceuticals Ltd., priority 2004, dated 2009).

The target in assay [1] is T1, human α1G T-type channels (Homo sapiens, UniProt O43497).
T1 construct: expressed in transfected cells
The assay is described as follows: Block of α1G T-type channels, whole-cell patch clamp in HEK cells. It is filed as cell-based. As to conditions: test pulse −40 mV. As for the experimental part:
Standard patch-clamp techniques were employed to identify blockers of T-type currents. Briefly, previously described HEK cell lines stably expressing human α1G T-type channels were used for all the recordings (passage #: 4-20, 37° C., 5% CO2). To obtain T-type currents, plastic dishes containing semi-confluent cells were positioned on the stage of a ZEISS AXIOVERT S100 microscope after replacing the culture medium with external solution (Table 3). Whole-cell patches were obtained using pipettes (borosilicate glass with filament, O.D.: 1.5 mm, I.D.: 0.86 mm, 10 cm length), fabricated on a SUTTER P-97 puller with resistance values of ˜5 MΩ (Table 4 ).
T-type currents were reliably obtained by using two voltage protocols: “non-inactivating”, and “inactivation”. In the non-inactivating protocol, the holding potential is set at −110 mV and with a pre-pulse at −100 mV for 1 second prior to the test pulse at −40 mV for 50 ms. In the inactivation protocol, the pre-pulse is at approximately −85 mV for 1 second, which inactivates about ^15% of the T-type channels.
Test compounds were dissolved in external solution, 0.1-0.01% DMSO. After ˜10 min rest, they were applied by gravity close to the cell using a WPI microfil tubing. The “non-inactivated” pre-pulse was used to examine the resting block of a compound. The “inactivated” protocol was employed to study voltage-dependent block. However, the initial data shown below were mainly obtained using the non-inactivated protocol only. IC50 values are shown for various compounds of the invention in Table 5.
On the technique in general: Patch clamp records ionic current or voltage across a cell membrane.

Assay [2] relates to rat formalin model (paw flinches). The assay is described as follows: Formalin-induced pain model. It is filed as in vivo. As to conditions: 30 mg/kg IP, 10 minutes prior to formalin, saline control=100%. On the procedure: […] The compounds were reconstituted to stock solutions of approximately 10 mg/ml in propylene glycol. Eight Holtsman male rats of 275-375 g size were randomly selected per test article.
The following study groups in Table 6 were used, with test article, vehicle control (propylene glycol) and saline delivered intraperitoneally (IP):
Prior to initiation of drug delivery, baseline behavioral and testing data were taken.
On the morning of testing, a small metal band (0.5 g) was loosely placed around the right hind paw. The rat was placed in a cylindrical Plexiglas chamber for adaptation a minimum of 30 minutes. Test Article or Vehicle Control Article was administered 10 minutes prior to formalin injection (50 μl of 5% formalin) into the dorsal surface of the right hindpaw of the rat. The animal was then placed into the chamber of the automated formalin apparatus where movement of the formalin injected paw was monitored and the number of paw flinches tallied by minute over the next 60 minutes (Malmberg, A. B., supra).
Results are presented as Maximum Possible Effect±SEM, where saline control=100% (Table 7)

In assay [3] the target is T2, P/Q-type channels (α1A+α2δ+β1b cDNA subunits) (Homo sapiens, UniProt O00555).
T2 construct: expressed in transfected cells; host or cells: HEK 293 (human embryonic kidney cells)
T2 sequence (O00555 whole entry): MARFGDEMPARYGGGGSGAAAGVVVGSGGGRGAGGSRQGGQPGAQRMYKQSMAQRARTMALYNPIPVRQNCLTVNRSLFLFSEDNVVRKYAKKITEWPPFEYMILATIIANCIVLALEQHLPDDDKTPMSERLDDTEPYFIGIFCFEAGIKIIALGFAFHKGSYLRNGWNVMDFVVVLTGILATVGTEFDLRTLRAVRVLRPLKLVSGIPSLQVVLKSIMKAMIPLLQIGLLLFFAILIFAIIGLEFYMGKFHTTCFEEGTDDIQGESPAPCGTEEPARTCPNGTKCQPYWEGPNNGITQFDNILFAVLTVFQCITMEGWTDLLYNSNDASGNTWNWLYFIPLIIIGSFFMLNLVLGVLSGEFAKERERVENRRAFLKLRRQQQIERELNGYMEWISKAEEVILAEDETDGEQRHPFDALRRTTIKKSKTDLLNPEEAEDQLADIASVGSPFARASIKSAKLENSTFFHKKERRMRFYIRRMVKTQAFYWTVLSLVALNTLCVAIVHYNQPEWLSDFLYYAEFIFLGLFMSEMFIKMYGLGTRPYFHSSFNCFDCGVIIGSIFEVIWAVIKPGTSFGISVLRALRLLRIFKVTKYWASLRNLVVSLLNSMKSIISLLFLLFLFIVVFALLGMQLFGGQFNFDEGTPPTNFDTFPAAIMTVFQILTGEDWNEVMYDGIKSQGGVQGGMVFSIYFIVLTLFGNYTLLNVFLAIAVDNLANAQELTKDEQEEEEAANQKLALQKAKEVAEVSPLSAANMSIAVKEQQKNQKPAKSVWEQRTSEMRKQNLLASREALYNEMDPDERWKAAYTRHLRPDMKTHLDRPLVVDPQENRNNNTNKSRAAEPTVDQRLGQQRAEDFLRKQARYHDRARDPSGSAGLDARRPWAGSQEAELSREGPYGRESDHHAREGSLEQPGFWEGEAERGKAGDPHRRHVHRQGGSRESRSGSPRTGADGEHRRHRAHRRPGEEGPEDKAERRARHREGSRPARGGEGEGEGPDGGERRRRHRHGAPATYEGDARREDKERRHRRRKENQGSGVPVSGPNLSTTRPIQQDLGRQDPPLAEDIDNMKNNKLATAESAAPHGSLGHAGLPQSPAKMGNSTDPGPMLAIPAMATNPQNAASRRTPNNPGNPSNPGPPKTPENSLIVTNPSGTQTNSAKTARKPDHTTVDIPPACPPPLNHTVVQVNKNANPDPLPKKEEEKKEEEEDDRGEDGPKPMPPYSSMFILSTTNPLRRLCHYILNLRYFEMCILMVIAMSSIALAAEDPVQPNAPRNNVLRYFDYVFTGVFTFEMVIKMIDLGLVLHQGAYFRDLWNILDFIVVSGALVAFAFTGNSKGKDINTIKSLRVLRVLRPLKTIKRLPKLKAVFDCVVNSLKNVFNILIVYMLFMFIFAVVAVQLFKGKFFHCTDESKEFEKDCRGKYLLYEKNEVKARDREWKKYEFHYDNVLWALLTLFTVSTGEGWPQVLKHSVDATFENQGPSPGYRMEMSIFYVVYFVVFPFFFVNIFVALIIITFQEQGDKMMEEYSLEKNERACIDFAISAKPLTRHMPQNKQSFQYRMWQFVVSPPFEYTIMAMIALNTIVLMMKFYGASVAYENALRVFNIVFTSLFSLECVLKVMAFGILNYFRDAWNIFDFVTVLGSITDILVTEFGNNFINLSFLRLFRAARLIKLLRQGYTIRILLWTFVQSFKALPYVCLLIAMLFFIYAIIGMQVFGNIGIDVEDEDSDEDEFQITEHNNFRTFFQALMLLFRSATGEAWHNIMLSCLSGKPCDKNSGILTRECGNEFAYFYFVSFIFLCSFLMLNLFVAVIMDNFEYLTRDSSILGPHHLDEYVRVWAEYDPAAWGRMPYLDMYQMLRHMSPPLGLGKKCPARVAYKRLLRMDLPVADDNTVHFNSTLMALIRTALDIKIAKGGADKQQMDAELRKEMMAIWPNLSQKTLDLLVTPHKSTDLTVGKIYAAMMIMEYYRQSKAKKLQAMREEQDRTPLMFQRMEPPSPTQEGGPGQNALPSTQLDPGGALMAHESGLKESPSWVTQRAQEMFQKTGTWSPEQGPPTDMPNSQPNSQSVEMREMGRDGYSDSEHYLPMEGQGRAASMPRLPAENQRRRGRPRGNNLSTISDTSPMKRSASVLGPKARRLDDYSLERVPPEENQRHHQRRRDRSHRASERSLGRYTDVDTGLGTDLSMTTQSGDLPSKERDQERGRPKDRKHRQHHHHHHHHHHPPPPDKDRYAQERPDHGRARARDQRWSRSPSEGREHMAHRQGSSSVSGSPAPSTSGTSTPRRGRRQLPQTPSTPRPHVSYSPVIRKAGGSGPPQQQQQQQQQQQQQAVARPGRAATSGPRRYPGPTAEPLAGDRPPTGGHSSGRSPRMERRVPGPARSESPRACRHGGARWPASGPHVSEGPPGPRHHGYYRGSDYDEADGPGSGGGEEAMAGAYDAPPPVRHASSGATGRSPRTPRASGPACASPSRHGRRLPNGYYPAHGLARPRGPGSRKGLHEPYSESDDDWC
T2 sequence (P54289 25-956 partner limits assumed): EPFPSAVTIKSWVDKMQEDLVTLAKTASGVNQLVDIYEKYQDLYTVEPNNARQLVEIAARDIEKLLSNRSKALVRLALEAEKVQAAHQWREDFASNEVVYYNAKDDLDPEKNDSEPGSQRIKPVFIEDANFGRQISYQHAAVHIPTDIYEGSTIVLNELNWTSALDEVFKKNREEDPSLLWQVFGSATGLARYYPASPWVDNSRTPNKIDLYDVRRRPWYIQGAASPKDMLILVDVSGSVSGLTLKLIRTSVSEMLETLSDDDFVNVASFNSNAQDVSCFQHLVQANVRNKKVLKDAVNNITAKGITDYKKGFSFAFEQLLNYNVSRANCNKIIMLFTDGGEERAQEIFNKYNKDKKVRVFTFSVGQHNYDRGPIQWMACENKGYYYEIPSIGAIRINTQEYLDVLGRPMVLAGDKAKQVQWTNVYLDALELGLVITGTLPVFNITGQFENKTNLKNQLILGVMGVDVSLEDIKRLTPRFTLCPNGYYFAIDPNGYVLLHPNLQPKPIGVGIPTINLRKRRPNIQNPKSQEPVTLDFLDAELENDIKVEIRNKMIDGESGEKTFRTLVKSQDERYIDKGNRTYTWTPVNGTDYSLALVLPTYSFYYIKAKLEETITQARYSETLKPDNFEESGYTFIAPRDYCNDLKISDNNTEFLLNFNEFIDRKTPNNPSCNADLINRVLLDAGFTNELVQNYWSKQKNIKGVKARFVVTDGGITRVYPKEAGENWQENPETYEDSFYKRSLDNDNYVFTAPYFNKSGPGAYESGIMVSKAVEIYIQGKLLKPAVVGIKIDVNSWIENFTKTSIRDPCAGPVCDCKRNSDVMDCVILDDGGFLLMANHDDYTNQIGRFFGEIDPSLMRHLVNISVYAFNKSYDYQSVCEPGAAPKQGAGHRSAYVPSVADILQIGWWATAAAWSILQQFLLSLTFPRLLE
T2 sequence (P54289 957-1103 partner limits assumed): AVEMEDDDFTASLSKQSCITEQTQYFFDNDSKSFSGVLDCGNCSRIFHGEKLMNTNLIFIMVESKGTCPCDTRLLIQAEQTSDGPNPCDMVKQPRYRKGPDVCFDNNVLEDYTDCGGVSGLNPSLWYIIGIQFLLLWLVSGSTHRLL
T2 sequence (Q02641 whole entry partner): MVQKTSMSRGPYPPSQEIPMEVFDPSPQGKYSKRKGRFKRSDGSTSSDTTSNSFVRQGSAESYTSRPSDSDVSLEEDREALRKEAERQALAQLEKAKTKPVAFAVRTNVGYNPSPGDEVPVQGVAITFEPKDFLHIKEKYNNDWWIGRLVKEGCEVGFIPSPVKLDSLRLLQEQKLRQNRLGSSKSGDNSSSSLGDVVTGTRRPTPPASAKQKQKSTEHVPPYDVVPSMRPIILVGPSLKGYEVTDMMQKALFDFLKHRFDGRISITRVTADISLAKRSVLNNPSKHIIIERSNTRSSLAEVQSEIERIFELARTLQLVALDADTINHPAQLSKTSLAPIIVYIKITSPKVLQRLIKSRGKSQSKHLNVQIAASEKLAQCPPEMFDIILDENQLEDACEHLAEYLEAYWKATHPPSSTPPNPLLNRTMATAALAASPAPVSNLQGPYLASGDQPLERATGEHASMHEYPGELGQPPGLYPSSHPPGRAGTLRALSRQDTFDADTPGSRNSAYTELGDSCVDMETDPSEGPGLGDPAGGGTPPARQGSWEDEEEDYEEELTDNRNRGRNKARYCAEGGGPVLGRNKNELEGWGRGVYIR
The assay is described as follows: Selectivity for N-type over P/Q-type channels, whole cell patch recordings in HEK 293 cells. Format: cell-based. As for the experimental part: (§1) Calcium channel blocking activity was measured using whole cell patch recordings on human embryonic kidney cells transiently expressing rat α1B+α2δ+β1b channels (N-type channels) with 5 mM barium as a charge carrier. Channel block was also measured in P/Q-type channels (α1A+α2δ+β1b cDNA subunits) and L-type channels (α1C+α2δ+β1b cDNA subunits).
(§2) HEK 293 Host cells (ATCC# CRL 1573) were grown in standard DMEM medium supplemented with 2 mM glutamine and 10% fetal bovine serum. HEK 293 cells were transfected by a standard calcium-phosphate-DNA coprecipitation method using the rat α1B+β1b+α2δ N-type calcium channel subunits in a vertebrate expression vector (for example, see Current Protocols in Molecular Biology).
(§3) After an incubation period of 24 to 72 hours, the culture medium was removed and replaced with external recording solution (see below). Whole cell patch clamp experiments were performed using an Axopatch 200B amplifier (Axon Instruments, Burlingame, Calif.) linked to an IBM compatible personal computer equipped with pCLAMP software. Borosilicate glass patch pipettes (Sutter Instrument Co., Novato, Calif.) were polished (Microforge, Narishige, Japan) to a resistance of about 4 MΩ when filled with cesium methanesulfonate internal solution (composition in MM: 109 CsCH3 SO4, 4 MgCl2, 9 EGTA, 9 HEPES, pH 7.2). Cells were bathed in 5 mM Ba^++ (in mM: 5 BaCl2, 1 MgCl2, 10 HEPES, 40 tetraethylammonium chloride, 10 glucose, 87.5 CsCl pH 7.2). Current data shown were elicited by a train of 100 ms test pulses at 0.066 Hz from −100 mV and/or −80 mV to various potentials (min. −20 mV, max. +30 mV). Drugs were perfused directly into the vicinity of the cells, using a microperfusion system.
(§4) Normalized dose-response curves were fit (Sigmaplot 4.0, SPSS Inc., Chicago, Ill.) by the Hill equation to determine IC50 values. Steady-state inactivation curves were plotted as the normalized test pulse amplitude following 5 s inactivating prepulses at +10 mV increments. Inactivation curves were fit (Sigmaplot 4.0) with the Boltzman equation, Ipeak (normalized)=1/(1+exp((V-Vh)z/25.6)), where V and Vh are the conditioning and half inactivation potentials, respectively, and z is the slope factor.
(§5) The same protocol was followed for cell lines expressing P/Q-type channels and L-type channels.

The target in assay [4] is T3, rat brain N-type calcium channel subunits (α1B+α2δ+β1b cDNA subunits) (Rattus norvegicus, UniProt Q02294).
T3 construct: expressed in transfected cells; host or cells: HEK 293
Kind of assay: N-type calcium channel block, whole cell patch clamp in HEK 293 cells. It is filed as cell-based. As to conditions: holding potential −80 mV to +10 mV, 5 mM BaCl2.
From the text: as §4
The methods of Example 11 were followed with slight modifications as will be apparent from the description below.
N-type calcium channel blocking activity was assayed in human embryonic kidney cells, HEK 293, stably transfected with the rat brain N-type calcium channel subunits (α1B+α2δ+β1b cDNA subunits). Briefly, cells were cultured in Dulbecco's modified eagle medium (DMEM) supplemented with 10% fetal bovine serum, 200 U/ml penicillin and 0.2 mg/ml streptomycin at 37° C. with 5% CO2. At 85% confluency, cells were split with 0.25% trypsin/1 mM EDTA and plated at 10% confluency on glass coverslips. At 12 hours the medium was. replaced and the cells transfected using a standard calcium phosphate protocol and the appropriate calcium channel cDNAs. Fresh DMEM was supplied and the cells transferred to 28° C./5% CO2. Cells were incubated for 1 to 2 days to whole cell recording.
Whole cell patch clamp experiments were performed using an Axopatch 200B amplifier (Axon Instruments, Burlingame, Calif.) linked to a personal computer equipped with pCLAMP software. The external and internal recording solutions contained, respectively, 5 mM BaCl2, 10 mM MgCl2, 10 mM HEPES, 40 mM TEACl, 10 mM glucose, 87.5 mM CsCl (pH 7.2) and 108 mM CsMS, 4 mM MgCl2, 9 mM EGTA, 9 mM HEPES (pH 7.2). Currents were typically elicited from a holding potential of −80 mV to +10 mV using Clampex software (Axon Instruments). Typically, currents were first elicited with low frequency stimulation (0.067 Hz) and allowed to stabilize prior to application of the compounds. The compounds were then applied during the low frequency pulse trains for two to three minutes to assess tonic block, and subsequently the pulse frequency was increased to 0.2 Hz to assess frequency dependent block. Data were analyzed using Clampfit (Axon Instruments) and SigmaPlot 4.0 (Jandel Scientific).

In assay [5] the target is T4, L-type channels (α1C+α2δ+β1b cDNA subunits) (Homo sapiens, UniProt Q13936).
T4 construct: expressed in transfected cells; host or cells: HEK 293 (human embryonic kidney cells)
The assay is described as follows: Selectivity for N-type over L-type channels, whole cell patch recordings in HEK 293 cells. It is filed as cell-based. As for the experimental part:
as §1, §2, §3, §4, §5

Assay [6] concerns T-type over L-type channels. As to conditions: cited from earlier work.
Setting [7] is: −80 mV (inactivation protocol), read-out: IC50 at −80 mV.
[8] abbreviates: frequency dependent block, pulse frequency 0.2 Hz, read-out: IC50 at 0.2 Hz.
[9] abbreviates: tonic block, low frequency stimulation 0.067 Hz, read-out: IC50 at 0.067 Hz.
The mark [10] stands for this setting: −100 mV (non-inactivating protocol), read-out: IC50 at −100 mV.

Read-outs that look alike come from different tables or passages of the source.

As usually defined, the IC50 is the concentration that inhibits the measured activity by half. Consider `COc1c(C(C)(C)C)cc(C(=O)N(C)[C@@H]2CCN(C(=O)CCCCC(c3ccc(F)cc3)c3ccc(F)cc3)C2)cc1C(C)(C)C` [Compound P1, (R)—N-{1-[6,6-Bis-(4-fluoro-phenyl)-hexanoyl]-pyrrolidin-3-yl}-3,5-di-tert-butyl-4-methoxy-N-methyl-benzamide], for which, in assay [1] (setting [7]), the 50% inhibitory concentration (IC50) is 8 nM. In assay [2], the “Maximum Possible Effect ± SEM, Phase I” value was found to be 94 ± 11%; the “Maximum Possible Effect ± SEM, Phase II” value is on record as 79 ± 14%; the “Maximum Possible Effect ± SEM, Phase IIA” value was 72 ± 16%. Moreover, the “selectivity for N-type over P/Q-type channels” value in assay [3] was “approximately 23 fold”. The IC50 in assay [4] (setting [8]) is 91 nM. In addition, the half-inhibitory concentration (IC50) in assay [4] (setting [9]) is 120 nM. Further, in assay [5], the “selectivity for N-type over L-type channels” value was approximately 75 fold.
For `COc1c(C(C)(C)C)cc(C(=O)N(C)[C@H]2CCN(C(=O)CCCCC(c3ccc(F)cc3)c3ccc(F)cc3)C2)cc1C(C)(C)C` [Compound P4, (S)-N-{1-[6,6-Bis-(4-fluoro-phenyl)-hexanoyl]-pyrrolidin-3-yl}-3,5-di-tert-butyl-4-methoxy-N-methyl-benzamide], the concentration for half-maximal inhibition (IC50) is 390 nM in assay [1] (setting [7]), 230 nM in assay [1] (setting [10]), 62 nM in assay [4] (setting [8]) and 93 nM in assay [4] (setting [9]). Besides, in assay [2], the “Maximum Possible Effect ± SEM, Phase I” value is on record as 50 ± 10%. Further, the “Maximum Possible Effect ± SEM, Phase II” value in assay [2] turned out to be 51 ± 10%. In assay [2], the “Maximum Possible Effect ± SEM, Phase IIA” value worked out at 42 ± 13%. Moreover, the “selectivity for N-type over P/Q-type channels” value in assay [3] was “approximately 12 fold”. Also, the “selectivity for N-type over L-type channels” value in assay [5] is given as “greater than 5000 fold”.
In the case of `COCC(=O)O[C@]1(CCN(C)CCCc2nc3ccccc3[nH]2)CCc2cc(F)ccc2[C@@H]1C(C)C` [Mibefradil], the “selective for T-type over L-type channels” value in assay [6] was 10-30 fold.
“(R)-6,6-Bis-(4-fluoro-phenyl)-hexanoic acid[1-(3,5-di-tert-butyl-4-methoxy-benzoyl)-pyrrolidin-3-yl]-methyl-amide [Compound P2]”: the IC50 came out at 51 nM in assay [1] (setting [7]), 117 nM in assay [1] (setting [10]), 32 nM in assay [4] (setting [8]) and 67 nM in assay [4] (setting [9]). Moreover, in assay [2], the “Maximum Possible Effect ± SEM, Phase I” value was 70 ± 8%. The “Maximum Possible Effect ± SEM, Phase II” value in assay [2] was found to be 82 ± 9%. Besides, the “Maximum Possible Effect ± SEM, Phase IIA” value in assay [2] was found to be 71 ± 12%. The “selectivity for N-type over P/Q-type channels” value in assay [3] was “approximately 9 fold”. Also, the “selectivity for N-type over L-type channels” value in assay [5] was “greater than 1000 fold”.
Regarding “(S)-6,6-Bis-(4-fluoro-phenyl)-hexanoic acid[1-(3,5-di-tert-butyl-4-methoxy-benzoyl)-pyrrolidin-3-yl]-methyl-amide [Compound P5]”, the IC50 in assay [1] (setting [7]) was 13 nM; in assay [1] (setting [10]) it was 73 nM; in assay [4] (setting [8]) it was 29 nM; in assay [4] (setting [9]) it was 45 nM. For the same compound, the “Maximum Possible Effect ± SEM, Phase I” value in assay [2] is reported as 88 ± 13%. Further, the “Maximum Possible Effect ± SEM, Phase II” value in assay [2] turned out to be 62 ± 4%. Further, the “Maximum Possible Effect ± SEM, Phase IIA” value in assay [2] was 47 ± 5%. Besides, the “selectivity for N-type over P/Q-type channels” value in assay [3] was “approximately 31 fold”. Also, the “selectivity for N-type over L-type channels” value in assay [5] was “greater than 2000 fold”.
